Results reported in patent US11279687B2, “Compounds and compositions for the inhibition of NAMPT” (Valo Health, Inc., priority 2010, dated 2022).
Like-named read-outs stand apart in the source and are kept apart here.

Experiments:
A2780 cells = experiment: In-vitro cell proliferation assay (SRB), A2780 cells; type: cell-based; conditions: A2780 cells, 72 hours, SRB, read-out: A2780 IC50;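 note: viable cell number read as SRB absorbance, background from media-only wells subtracted, IC50 interpolated from percent inhibition at two bracketing compound concentrations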
NAMPT = NAMPT (Homo sapiens (Human), UniProt P43490); experiment: NAMPT biochemical inhibition assay (NMN quantified by mass spectrometry); conditions: NAMPT biochemical inhibition; read-out: Biochem IC50
NAMPT, sequence (P43490 whole entry): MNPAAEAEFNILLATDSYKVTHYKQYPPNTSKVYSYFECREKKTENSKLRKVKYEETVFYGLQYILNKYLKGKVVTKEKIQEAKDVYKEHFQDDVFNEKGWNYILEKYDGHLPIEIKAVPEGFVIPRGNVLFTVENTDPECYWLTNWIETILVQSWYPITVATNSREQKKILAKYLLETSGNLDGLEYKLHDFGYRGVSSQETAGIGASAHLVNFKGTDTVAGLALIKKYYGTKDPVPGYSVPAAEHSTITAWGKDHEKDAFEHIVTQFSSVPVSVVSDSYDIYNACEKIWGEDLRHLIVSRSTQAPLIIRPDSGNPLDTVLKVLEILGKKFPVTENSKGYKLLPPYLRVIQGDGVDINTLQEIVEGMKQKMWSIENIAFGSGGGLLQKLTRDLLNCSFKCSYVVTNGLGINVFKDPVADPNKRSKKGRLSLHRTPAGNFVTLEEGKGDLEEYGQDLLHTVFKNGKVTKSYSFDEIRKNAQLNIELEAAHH

IC50 (A2780 cells; Homo sapiens, A2780, 72 h) | IC50 (NAMPT) | Structure (SMILES) | IC50 (A2780 cells)
45 nM | 0.3 nM | O=C(NCc1cccnc1)Nc1ccc(S(=O)(=O)Nc2cccc3c2CCCC3)cc1 [3-(pyridin-3-ylmethyl)-1-{4-[(5,6,7,8-tetrahydronaphthalen-1-yl)sulfamoyl]phenyl}urea] | 
201 nM | 3 nM | O=C(NCc1cccnc1)Nc1ccc(S(=O)(=O)NCc2ccccc2Cl)cc1 [3-(4-{[(2-chlorophenyl)methyl]sulfamoyl}phenyl)-1-(pyridin-3-ylmethyl)urea] | 
2730 nM | 1890 nM | O=C(Nc1cccnc1)c1ccc(S(=O)(=O)c2ccccc2)cc1 [4-(benzenesulfonyl)-N-(pyridin-3-yl)benzamide] | 
14.2 nM | 4 nM | O=C(NCc1cccnc1)Nc1ccc(S(=O)(=O)c2ccnc(N3CCOCC3)c2Cl)cc1 [3-{4-[3-chloro-2-(morpholin-4-yl)pyridine-4-sulfonyl]phenyl}-1-(pyridin-3-ylmethyl)urea] | 
100 to 1000 nM | 4.1 nM | O=C(NCc1cccnc1)Nc1ccc(S(=O)(=O)c2ccc(C(F)(F)F)c(F)c2)cc1 [3-(4-{[3-fluoro-4-(trifluoromethyl)benzene]sulfonyl}phenyl)-1-(pyridin-3-ylmethyl)urea] | 
137 nM | 9 nM | O=C(NCc1cccnc1)Nc1ccc(S(=O)(=O)N2CCC[C@H](C(=O)N3CCCC3)C2)cc1 [3-(pyridin-3-ylmethyl)-1-{4-[(3S)-3-[(pyrrolidin-1-yl)carbonyl]piperidine-1-sulfonyl]phenyl}urea] | 
13 nM | 7 nM | O=C(NCc1cccnc1)Nc1ccc(S(=O)(=O)N2CCC(N3CCCCC3)CC2)cc1 [1-{4-[4-(piperidin-1-yl)piperidine-1-sulfonyl]phenyl}-3-(pyridin-3-ylmethyl)urea] | 
> 1000 nM | 11 nM | Cc1cc(C)c(S(=O)(=O)c2ccc(NC(=O)NCc3cccnc3)cc2)c(C)c1 [1-(pyridin-3-ylmethyl)-3-{4-[(2,4,6-trimethylbenzene)sulfonyl]phenyl}urea] | 
89 nM | 4 nM | COCCC1CCCN(S(=O)(=O)c2ccc(NC(=O)NCc3cccnc3)cc2)C1 (stereo not drawn) [3-{4-[3-(2-methoxyethyl)piperidine-1-sulfonyl]phenyl}-1-(pyridin-3-ylmethyl)urea] | 
> 30000 nM | 460 nM | O=C(NCc1cc2ccncc2s1)Nc1ccc(S(=O)(=O)c2ccccc2)cc1 [1-[4-(benzenesulfonyl)phenyl]-3-{thieno[2,3-c]pyridin-2-ylmethyl}urea] | 
80 nM | 3 nM | O=C(NCc1cccnc1)Nc1ccc(S(=O)(=O)NC2CCCCCC2)cc1 [1-[4-(cycloheptylsulfamoyl)phenyl]-3-(pyridin-3-ylmethyl)urea] | 
26 nM | 2 nM | CC(C)N(Cc1ccccc1)S(=O)(=O)c1ccc(NC(=O)NCc2cccnc2)cc1 [3-{4-[benzyl(propan-2-yl)sulfamoyl]phenyl}-1-(pyridin-3-ylmethyl)urea] | 
39 nM | 6 nM | COCc1ccccc1S(=O)(=O)c1ccc(NC(=O)NCc2cccnc2)cc1 [3-(4-{[2-(methoxymethyl)benzene]sulfonyl}phenyl)-1-(pyridin-3-ylmethyl)urea] | 
11 nM | 5 nM | O=C(NCc1cccnc1)Nc1ccc(S(=O)(=O)Nc2ccccc2N2CCOCC2)cc1 [1-(4-{[2-(morpholin-4-yl)phenyl]sulfamoyl}phenyl)-3-(pyridin-3-ylmethyl)urea] | 
100 to 1000 nM | 6.7 nM | CCNC(=O)c1cccc(S(=O)(=O)c2ccc(NC(=O)NCc3cccnc3)cc2)c1 [N-ethyl-3-[(4-{[(pyridin-3-ylmethyl)carbamoyl]amino[benzene)sulfonyl]benzamide] | 
100 to 1000 nM | 5 nM | COc1ccc(S(=O)(=O)c2ccc(NC(=O)NCc3cccnc3)cc2)cn1 [3-[4-(6-methoxypyridine-3-sulfonyl)phenyl]-1-(pyridin-3-ylmethyl)urea] | 
99.3 nM | 1.7 nM | Cc1cc(F)cc(S(=O)(=O)c2ccc(NC(=O)NCc3cccnc3)cc2)c1 [3-{4-[(3-fluoro-5-methylbenzene)sulfonyl]phenyl}-1-(pyridin-3-ylmethyl)urea] | 
9780 nM | 3140 nM | CC(C)(C)OC(=O)Nc1ccc(CNC(=O)Nc2ccc(S(=O)(=O)N3CCCCC3)cc2)cn1 [tert-butylN-{5-[({[4-(piperidine-1-sulfonyl)phenyl]carbamoyl}amino)methyl]pyridin-2-yl}carbamate] | 

IC50 (A2780 cells; Homo sapiens, A2780, 72 h) | IC50 (NAMPT) | Structure (SMILES) | IC50 (A2780 cells)
100 to 1000 nM | 3 nM | CC(C)c1ccc(S(=O)(=O)c2ccc(NC(=O)NCc3cccnc3)cc2)cc1 [3-(4-{[4-(propan-2-yl)benzene]sulfonyl[phenyl)-1-(pyridin-3-ylmethyl)urea] | 
> 10000 nM | 3790 nM | O=C(NCc1ccc(-n2cccn2)nc1)Nc1ccc(S(=O)(=O)c2ccccc2)cc1 [3-[4-(benzenesulfonyl)phenyl]-1-{[6-(1H-pyrazol-1-yl)pyridin-3-yl]methyl}urea] | 
518 nM | 3 nM | O=C(NCc1cccnc1)Nc1ccc(S(=O)(=O)c2cccc(Cl)c2)cc1 [3-{4-[(3-chlorobenzene)sulfonyl]phenyl}-1-(pyridin-3-ylmethyl)urea] | 
> 2000 nM | 48.6 nM | O=C(NCc1cccnc1)Nc1ccc(S(=O)(=O)N2CCNCC2)cc1 [1-[4-(piperazine-1-sulfonyl)phenyl]-3-(pyridin-3-ylmethyl)urea] | 
148 nM | 3 nM | CN(C)c1ccc(CNS(=O)(=O)c2ccc(NC(=O)NCc3cccnc3)cc2)cc1 [3-[4-({[4-(dimethylamino)phenyl]methyl}sulfamoyl)phenyl]-1-(pyridin-3-ylmethyl)urea] | 
250 nM | 6 nM | O=C(NCc1cccnc1)Nc1ccc(S(=O)(=O)c2ccccc2Br)cc1 [3-{4-[(2-bromobenzene)sulfonyl]phenyl}-1-(pyridin-3-ylmethyl)urea] | 
79 nM | 6 nM | CCN(C(C)=O)[C@H]1CCN(S(=O)(=O)c2ccc(NC(=O)NCc3cccnc3)cc2)C1 [N-ethyl-N-[(3S)-1-[(4-{[(pyridin-3-ylmethyl)carbamoyl]amino}benzene)sulfonyl]pyrrolidin-3-yl]acetamide] | 
56.4 nM | 4 nM | CC(C)COc1cc(F)cc(S(=O)(=O)c2ccc(NC(=O)NCc3cccnc3)cc2)c1 [3-(4-{[3-fluoro-5-(2-methylpropoxy)benzene]sulfonyl}phenyl)-1-(pyridin-3-ylmethyl)urea] | 
63.2 nM | 4.4 nM | COc1cc(S(=O)(=O)c2ccc(NC(=O)NCc3cccnc3)cc2)ccc1Cl [3-{4-[(4-chloro-3-methoxybenzene)sulfonyl]phenyl}-1-(pyridin-3-ylmethyl)urea] | 
83.8 nM | 3.8 nM | CNC(=O)c1ccc(S(=O)(=O)c2ccc(NC(=O)NCc3cccnc3)cc2)cn1 [N-methyl-5-[(4-{[(pyridin-3-ylmethyl)carbamoyl]amino}benzene)sulfonyl]pyridine-2-carboxamide] | 
4.33 nM | 7.03 nM | O=C(NCc1ccc2nccn2c1)c1ccc(S(=O)(=O)c2cccc(C(F)(F)F)c2)cc1 [N-{imidazo[1,2-a]pyridin-6-ylmethyl}-4-{[3-(trifluoromethyl)benzene]sulfonyl}benzamide] | 
30 nM | 8 nM | CN(C(=O)CN1CCN(S(=O)(=O)c2ccc(NC(=O)NCc3cccnc3)cc2)CC1)c1ccccc1 [N-methyl-N-phenyl-2-{4-[(4-{[(pyridin-3-ylmethyl)carbamoyl]amino}benzene)sulfonyl]piperazin-1-yl}acetamide] | 
41 nM | 5 nM | O=C(NCc1cccnc1)Nc1ccc(S(=O)(=O)N2CC[C@@]3(C2)OC(=O)c2ccccc23)cc1 [1-{4-[(1R)-3-oxo-3H-spiro[2-benzofuran-1,3′-pyrrolidine]-1′-ylsulfonyl]phenyl}-3-(pyridin-3-ylmethyl)urea] | 
12 nM | 2 nM | COc1ccc2ccccc2c1S(=O)(=O)c1ccc(NC(=O)NCc2cccnc2)cc1 [3-[4-(2-methoxynaphthalene-1-sulfonyl)phenyl]-1-(pyridin-3-ylmethyl)urea] | 
3.4 nM | 0.5 nM | O=C(NCc1cccnc1)Nc1ccc(S(=O)(=O)c2cccc3cc[nH]c23)cc1 [1-[4-(1H-indole-7-sulfonyl)phenyl]-3-(pyridin-3-ylmethyl)urea] | 
91 nM | 80 nM | C[C@@H]1[C@H]2C[C@@H](C[C@H]1NS(=O)(=O)c1ccc(NC(=O)NCc3cccnc3)cc1)C2(C)C [1-(pyridin-3-ylmethyl)-3-(4-{[(1R,2R,3R,5S)-2,6,6-trimethylbicyclo[3.1.1]heptan-3-yl]sulfamoyl}phenyl)urea] | 
95 nM | 4 nM | Cc1ccc(N2CCN(S(=O)(=O)c3ccc(NC(=O)NCc4cccnc4)cc3)C[C@@H]2C)cc1 [3-{4-[(3S)-3-methyl-4-(4-methylphenyl)piperazine-1-sulfonyl]phenyl}-1-(pyridin-3-ylmethyl)urea] | 
93 nM | 3 nM | Cc1ccc(NS(=O)(=O)c2ccc(NC(=O)NCc3cccnc3)cc2)cc1C [3-{4-[(3,4-dimethylphenyl)sulfamoyl]phenyl}-1-(pyridin-3-ylmethyl)urea] | 

Structure (SMILES) | IC50 (A2780 cells; Homo sapiens, A2780, 72 h) | IC50 (NAMPT) | IC50 (A2780 cells)
CC(C)NC(=O)c1cccc(S(=O)(=O)c2ccc(NC(=O)NCc3cccnc3)cc2)c1 [N-(propan-2-yl)-3-[(4-{[(pyridin-3-ylmethyl)carbamoyl]amino[benzene)sulfonyl]benzamide] |  | 10 nM | 100 to 1000 nM
O=C(NCc1cccnc1)Nc1ccc(S(=O)(=O)c2cccc(C(=O)NCCO)c2)cc1 [N-(2-hydroxyethyl)-3-[(4-{[(pyridin-3-ylmethyl)carbamoyl]amino[benzene)sulfonyl]benzamide] |  | 7.8 nM | 100 to 1000 nM
O=C(NCc1cccnc1)Nc1ccc(S(=O)(=O)c2cccc(C(=O)NC3CC3)c2)cc1 [N-cyclopropyl-3-[(4-{[(pyridin-3-ylmethyl)carbamoyl]amino[benzene)sulfonyl]benzamide] |  | 6.4 nM | 100 to 1000 nM
